Assay results taken from ChEMBL document CHEMBL1145884, “Synthesis and biological activity of novel 1beta-methylcarbapenems with oxyiminopyrrolidinylamide moiety” (2003).

How the values were obtained:
Klebsiella pneumoniae [1] = assay: Compound was evaluated for its antibacterial activity against Klebsiella pneumoniae 5 ESBL; assay type: functional
Klebsiella pneumoniae [2] = assay: Compound was evaluated for its antibacterial activity against Klebsiella pneumoniae 7 ESBL; assay type: functional
Klebsiella pneumoniae [3] = assay: Compound was evaluated for its antibacterial activity against Klebsiella pneumoniae 4 ESBL; assay type: functional
Klebsiella pneumoniae [4] = assay: Compound was evaluated for its antibacterial activity against Klebsiella pneumoniae 1 ESBL; assay type: functional
Klebsiella pneumoniae [5] = assay: Compound was evaluated for its antibacterial activity against Klebsiella pneumoniae 2 ESBL; assay type: functional
Salmonella typhimurium [6] = assay: Compound was evaluated for its antibacterial activity against Salmonella Typhimurium 1; assay type: functional, Salmonella enterica subsp. enterica serovar Typhimurium; conditions: Salmonella enterica
Escherichia coli [7] = assay: Compound was evaluated for its antibacterial activity against Escherichia coli 0157:H7; assay type: functional
Salmonella enteritidis [8] = assay: Compound was evaluated for its antibacterial activity against […] enteritidis 1; assay type: functional, Salmonella enterica subsp. enterica serovar Enteritidis; conditions: Salmonella enterica
Escherichia coli [9] = assay: Compound was evaluated for its antibacterial activity against Escherichia coli ATCC 25922; assay type: functional
Salmonella enteritidis [10] = assay: Compound was evaluated for its antibacterial activity against […] enteritidis 2; assay type: functional, Salmonella enterica subsp. enterica serovar Enteritidis; conditions: Salmonella enterica
Escherichia coli [11] = assay: Compound was evaluated for its antibacterial activity against Escherichia coli DC 0; assay type: functional
Escherichia coli [12] = assay: Compound was evaluated for its antibacterial activity against Escherichia coli CCARM 1113 MDR; assay type: functional
Escherichia coli [13] = assay: Compound was evaluated for its antibacterial activity against Escherichia coli CCARM 1108 MDR; assay type: functional
Shigella sonnei = assay: Compound was evaluated for its antibacterial activity against Shigella sonnei ATCC 9290; assay type: functional
Klebsiella pneumoniae [14] = assay: Compound was evaluated for its antibacterial activity against Klebsiella pneumoniae 9 ESBL; assay type: functional
Enterobacter cloacae = assay: Compound was evaluated for its antibacterial activity against Enterobacter cloacae P99; assay type: functional
Pseudomonas aeruginosa [15] = assay: Compound was evaluated for its antibacterial activity against Pseudomonas aeruginosa 2 MDR; assay type: functional
Klebsiella pneumoniae [16] = assay: Compound was evaluated for its antibacterial activity against Klebsiella pneumoniae 8 ESBL; assay type: functional
Escherichia coli [17] = assay: Compound was evaluated for its antibacterial activity against Escherichia coli CCARM 1111 MDR; assay type: functional
Klebsiella pneumoniae [18] = assay: Compound was evaluated for its antibacterial activity against Klebsiella pneumoniae 6 ESBL; assay type: functional
Klebsiella oxytoca = assay: Compound was evaluated for its antibacterial activity against Klebsiella oxytoca 1082E; assay type: functional
Escherichia coli [19] = assay: Compound was evaluated for its antibacterial activity against Escherichia coli CCARM 1116 MDR; assay type: functional
Escherichia coli [20] = assay: Compound was evaluated for its antibacterial activity against Escherichia coli CCARM 1114 MDR; assay type: functional
Pseudomonas aeruginosa [21] = assay: Compound was evaluated for its antibacterial activity against Pseudomonas aeruginosa 1 MDR; assay type: functional
Klebsiella pneumoniae [22] = assay: Compound was evaluated for its antibacterial activity against Klebsiella pneumoniae 3 ESBL; assay type: functional
Shigella flexneri = assay: Compound was evaluated for its antibacterial activity against Shigella flexneri ATCC 9199; assay type: functional
Pseudomonas aeruginosa [23] = assay: Compound was evaluated for its antibacterial activity against Pseudomonas aeruginosa 3 MDR; assay type: functional
Salmonella typhimurium [24] = assay: Compound was evaluated for its antibacterial activity against Salmonella Typhimurium; assay type: functional, Salmonella enterica subsp. enterica serovar Typhimurium; conditions: Salmonella enterica
Escherichia coli [25] = assay: Compound was evaluated for its antibacterial activity against Escherichia coli DC 2; assay type: functional
Salmonella enteritidis [26] = assay: Compound was evaluated for its antibacterial activity against […] enteritidis; assay type: functional, Salmonella enterica subsp. enterica serovar Enteritidis; conditions: Salmonella enterica
Pseudomonas aeruginosa [27] = assay: Compound was evaluated for its antibacterial activity against Pseudomonas aeruginosa ATCC 27853; assay type: functional
Escherichia coli [28] = assay: Compound was evaluated for its antibacterial activity against Escherichia coli TEM; assay type: functional
Salmonella enteritidis [29] = assay: Compound was evaluated for its antibacterial activity against […] enteritidis 3; assay type: functional, Salmonella enterica subsp. enterica serovar Enteritidis; conditions: Salmonella enterica
Escherichia coli [30] = assay: Compound was evaluated for its antibacterial activity against Escherichia coli CCARM 1110 MDR; assay type: functional
Salmonella typhimurium [31] = assay: Compound was evaluated for its antibacterial activity against Salmonella Typhimurium 2; assay type: functional, Salmonella enterica subsp. enterica serovar Typhimurium; conditions: Salmonella enterica
Escherichia coli [32] = assay: Compound was evaluated for its antibacterial activity against Escherichia coli CCARM 1112 MDR; assay type: functional
Escherichia coli [33] = assay: Compound was evaluated for its antibacterial activity against Escherichia coli CCARM 1115 MDR; assay type: functional
Escherichia coli [34] = assay: Compound was evaluated for its antibacterial activity against Escherichia coli CCARM 1109 MDR; assay type: functional
Klebsiella pneumoniae [35] = assay: Compound was evaluated for its antibacterial activity against Klebsiella pneumoniae 10 ESBL; assay type: functional
Escherichia coli [36] = assay: Compound was evaluated for its antibacterial activity against Escherichia coli CCARM 1117 MDR; assay type: functional

Compound: C[C@@H](O)[C@H]1C(=O)N2C(C(=O)[O-])=C(S[C@@H]3CN[C@H](C(=O)Nc4cccc(C(=O)O)c4)C3)[C@H](C)[C@H]12.O.[Na+]
- MIC (Klebsiella pneumoniae [1]): ≤ 0.008 µg/mL
- MIC (Klebsiella pneumoniae [2]): 0.25 µg/mL
- MIC (Klebsiella pneumoniae [3]): 0.06 µg/mL
- MIC (Klebsiella pneumoniae [4]): 0.016 µg/mL
- MIC (Klebsiella pneumoniae [5]): 0.016 µg/mL
- MIC (Salmonella typhimurium [6]): ≤ 0.008 µg/mL
- MIC (Escherichia coli [7]): ≤ 0.008 µg/mL
- MIC (Salmonella enteritidis [8]): ≤ 0.008 µg/mL
- MIC (Escherichia coli [9]): ≤ 0.008 µg/mL
- MIC (Salmonella enteritidis [10]): ≤ 0.008 µg/mL
- MIC (Escherichia coli [11]): ≤ 0.008 µg/mL
- MIC (Escherichia coli [12]): 0.06 µg/mL
- MIC (Escherichia coli [13]): 0.016 µg/mL
- MIC (Shigella sonnei): ≤ 0.008 µg/mL
- MIC (Klebsiella pneumoniae [14]): 0.016 µg/mL
- MIC (Enterobacter cloacae): 0.06 µg/mL
- MIC (Pseudomonas aeruginosa [15]): 8 µg/mL
- MIC (Klebsiella pneumoniae [16]): 1 µg/mL
- MIC (Escherichia coli [17]): ≤ 0.008 µg/mL
- MIC (Klebsiella pneumoniae [18]): 0.06 µg/mL
- MIC (Klebsiella oxytoca): 0.03 µg/mL
- MIC (Escherichia coli [19]): ≤ 0.008 µg/mL
- MIC (Escherichia coli [20]): 0.25 µg/mL
- MIC (Pseudomonas aeruginosa [21]): 8 µg/mL
- MIC (Klebsiella pneumoniae [22]): 0.5 µg/mL
- MIC (Shigella flexneri): ≤ 0.008 µg/mL
- MIC (Pseudomonas aeruginosa [23]): 8 µg/mL
- MIC (Salmonella typhimurium [24]): 0.016 µg/mL
- MIC (Escherichia coli [25]): 0.016 µg/mL
- MIC (Salmonella enteritidis [26]): ≤ 0.008 µg/mL
- MIC (Pseudomonas aeruginosa [27]): 4 µg/mL
- MIC (Escherichia coli [28]): 0.016 µg/mL
- MIC (Salmonella enteritidis [29]): ≤ 0.008 µg/mL
- MIC (Escherichia coli [30]): 0.03 µg/mL
- MIC (Salmonella typhimurium [31]): ≤ 0.008 µg/mL
- MIC (Escherichia coli [32]): 0.016 µg/mL
- MIC (Escherichia coli [33]): 0.06 µg/mL
- MIC (Escherichia coli [34]): 0.06 µg/mL
- MIC (Klebsiella pneumoniae [35]): 0.016 µg/mL
- MIC (Escherichia coli [36]): 0.03 µg/mL
